US7998952B2, “Thiolactams and uses thereof” (Millennium Pharmaceuticals, Inc., priority 2008, dated 2011)

Target: T1, recombinant human PLK1[2-369]T210D (Homo sapiens, UniProt P53350, T210D)
T1 construct: recombinant human PLK1[2-369]T210D; Smt (SUMO) fusion partner (N, cleaved yes); host or cells: E. coli
Experiment: PLK1 DELFIA Kinase Assay
Assay type: biochemical
Settings: 50 μM ATP, 2 μM peptide substrate, 0.3 nM enzyme, 90 minutes at room temperature
Description: Recombinant human PLK1 was expressed in E. coli as an N-terminal Smt fusion protein using a proprietary vector (pSGX4) by Structural Genomics (SGX). The fusion partner was removed through cleavage with Ulp1 after an initial purification using a Ni2+ affinity column.
PLK1 DELFIA® Kinase Assay
The enzymatic reaction mixture, with or without PLK inhibitors, was incubated 90 minutes at room temperature before termination with 50 μL of STOP buffer containing 1% BSA, 0.05% Tween20, 100 mM EDTA. 50 μL of the stopped enzyme reaction mixture was transferred to a Neutravidin-coated 384-well plate (Pierce) and incubated at room temperature for 60 minutes. […] The wells were washed and then the bound europium was liberated using 50 μL of Enhancement Solution (Perkin Elmer). Quantification of europium was done using a Pherastar (BMG Labtech)

T1 sequence (P53350 2-369 T210D): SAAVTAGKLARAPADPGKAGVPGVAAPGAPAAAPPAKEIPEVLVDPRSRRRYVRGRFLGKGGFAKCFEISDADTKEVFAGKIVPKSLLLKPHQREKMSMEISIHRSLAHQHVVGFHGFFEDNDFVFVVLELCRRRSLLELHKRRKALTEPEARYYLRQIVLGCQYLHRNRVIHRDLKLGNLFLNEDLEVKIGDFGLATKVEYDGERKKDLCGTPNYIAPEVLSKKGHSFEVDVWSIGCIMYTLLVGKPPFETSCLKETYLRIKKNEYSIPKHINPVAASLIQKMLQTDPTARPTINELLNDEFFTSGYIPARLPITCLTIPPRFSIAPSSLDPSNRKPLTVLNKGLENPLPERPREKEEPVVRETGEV

Row | Structure (SMILES) | IC50
1 | COc1ccc2c(c1)NC(=S)Cc1cnc(Nc3cc(CCCN(C)C)cnc3C)nc1-2 [Compound I-1, 2-({5-[3-(dimethylamino)propyl]-2-methylpyridin-3-yl}amino)-9-methoxy-5,7-dihydro-6H-pyrimido[5,4-d][1]benzazepine-6-thione] | < 5 nM
2 | CCN1CCN(c2cnc(C)c(Nc3ncc4c(n3)-c3ccc(C(F)(F)F)cc3NC(=S)C4)c2)C[C@@H]1C [Compound I-2, 2-({5-[(3S)-4-ethyl-3-methylpiperazin-1-yl]-2-methylpyridin-3-yl}amino)-9-(trifluoromethyl)-5,7-dihydro-6H-pyrimido[5,4-d][1]benzazepine-6-thione] | < 5 nM
3 | Cc1nc(N(C)C2CCN(C)C2)ccc1Nc1ncc2c(n1)-c1ccc(Cl)cc1NC(=S)C2 (stereo not drawn) [Compound I-3, 9-chloro-2-({2-methyl-6-[methyl(1-methylpyrrolidin-3-yl)amino]pyridin-3-yl}amino)-5,7-dihydro-6H-pyrimido[5,4-d][1]benzazepine-6-thione] | 5 to 25 nM
4 | Cc1ccc(Nc2ncc3c(n2)-c2ccc(C(F)(F)F)cc2NC(=S)C3)c(C)n1 [Compound I-4, 2-[(2,6-dimethylpyridin-3-yl)amino]-9-(trifluoromethyl)-5,7-dihydro-6H-pyrimido[5,4-d][1]benzazepine-6-thione] | < 5 nM
5 | CCc1ccc2c(c1)NC(=S)Cc1cnc(Nc3cc(CCCN(C)C)cnc3C)nc1-2 [Compound I-5, 2-({5-[3-(dimethylamino)propyl]-2-methylpyridin-3-yl}amino)-9-ethyl-5,7-dihydro-6H-pyrimido[5,4-d][1]benzazepine-6-thione] | < 5 nM
6 | Cc1ncc(CCN2CCN(C)CC2)cc1Nc1ncc2c(n1)-c1ccc(Cl)cc1NC(=S)C2 [Compound I-6, 9-chloro-2-({2-methyl-5-[2-(4-methylpiperazin-1-yl)ethyl]pyridin-3-yl}amino)-5,7-dihydro-6H-pyrimido[5,4-d][1]benzazepine-6-thione] | < 5 nM
7 | Cc1nc(N2CCCC(N(C)C)C2)ccc1Nc1ncc2c(n1)-c1ccc(Cl)cc1NC(=S)C2 (stereo not drawn) [Compound I-7, 9-chloro-2-({6-[3-(dimethylamino)piperidin-1-yl]-2-methylpyridin-3-yl}amino)-5,7-dihydro-6H-pyrimido[5,4-d][1]benzazepine-6-thione] | < 5 nM
8 | COc1ncc(Nc2ncc3c(n2)-c2ccc(Cl)cc2NC(=S)C3)cc1CCCN(C)C [Compound I-8, 9-chloro-2-({5-[3-(dimethylamino)propyl]-6-methoxypyridin-3-yl}amino)-5,7-dihydro-6H-pyrimido[5,4-d][1]benzazapine-6-thione] | < 5 nM
9 | Cc1nc(N2CCCC(N(C)C)C2)ccc1Nc1ncc2c(n1)-c1ccc(C(F)(F)F)cc1NC(=S)C2 (stereo not drawn) [Compound I-9, 2-({6-[3-(dimethylamino)piperidin-1-yl]-2-methylpyridin-3-yl}amino)-9-(trifluoromethyl)-5,7-dihydro-6H-pyrimido[5,4-d][1]benzazepine-6-thione] | < 5 nM
10 | Cc1ncc(CCN2C[C@@H](C)O[C@H](C)C2)cc1Nc1ncc2c(n1)-c1ccc(Cl)cc1NC(=S)C2 [Compound I-10] | < 5 nM
11 | CCN1CCN(c2cncc(Nc3ncc4c(n3)-c3ccc(Cl)cc3NC(=S)C4)c2)C[C@@H]1C [Compound I-11, 9-chloro-2-({5-[(3S)-4-ethyl-3-methylpiperazin-1-yl]pyridin-3-yl}amino)-5,7-dihydro-6H-pyrimido[5,4-d][1]benzazepine-6-thione] | < 5 nM
12 | Cc1ncc(CCCCN(C)C)cc1Nc1ncc2c(n1)-c1ccc(C(F)(F)F)cc1NC(=S)C2 [Compound I-12, 2-({5-[4-(dimethylamino)butyl]-2-methylpyridin-3-yl}amino)-9-(trifluoromethyl)-5,7-dihydro-6H-pyrimido[5,4-d][1]benzazepine-6-thione] | < 5 nM
13 | S=C1Cc2cnc(Nc3ccc(N4CCOCC4)nc3)nc2-c2ccc(Cl)cc2N1 [Compound I-13, 9-chloro-2-[(6-morpholin-4-ylpyridin-3-yl)amino]-5,7-dihydro-6H-pyrimido[5,4-d][1]benzazepine-6-thione] | < 5 nM
14 | Cc1ncc(C2CCN(C)CC2)cc1Nc1ncc2c(n1)-c1ccc(Cl)cc1NC(=S)C2 [Compound I-14, 9-chloro-2-{[2-methyl-5-(1-methylpiperidin-4-yl)pyridin-3-yl]amino}-5,7-dihydro-6H-pyrimido[5,4-d][1]benzazepine-6-thione] | < 5 nM
15 | Cc1ncc(CCN2CCC(N(C)C)C2)cc1Nc1ncc2c(n1)-c1ccc(Cl)cc1NC(=S)C2 (stereo not drawn) [Compound I-15, 9-chloro-2-[(5-{2-[3-(dimethylamino)pyrrolindin-1-yl]ethyl}-2-methylpridin-3-yl)amino]-5,7-dihydro-6H-pyrimido[5,4-d][1]benzazepine-6-thione] | < 5 nM
16 | Cc1nc(CCCN(C)C)ccc1Nc1ncc2c(n1)-c1ccc(Cl)cc1NC(=S)C2 [Compound I-16, 9-chloro-2-({6-[3-(dimethylamino)propyl]-2-methylpyridin-3-yl}amino)-5,7-dihydro-6H-pyrimido[5,4-d][1]benzazepine-6-thione] | 5 to 25 nM
17 | CCN1CCC(c2cnc(C)c(Nc3ncc4c(n3)-c3ccc(Cl)cc3NC(=S)C4)c2)CC1 [Compound I-17, 9-chloro-2-{[5-(1-ethylpiperidin-4-yl)-2-methylpyridin-3-yl]amino}-5,7-dihydro-6H-pyrimido[5,4-d][1]benzazepine-6-thione] | < 5 nM
18 | Cc1nc(NC2CCOCC2)ccc1Nc1ncc2c(n1)-c1ccc(C(F)(F)F)cc1NC(=S)C2 [Compound I-18, 2-{[2-methyl-6-(tetrahydro-2H-pyran-4-ylamino)pyridin-3-yl]amino}-9-(trifluoromethyl)-5,7-dihydro-6H-pyrimido[5,4-d][1]benzazepine-6-thione] | < 5 nM
19 | Cc1nc(NC2CCOCC2)ccc1Nc1ncc2c(n1)-c1ccc(Cl)cc1NC(=S)C2 [Compound I-19, 9-chloro-2-{[2-methyl-6-(tetrahydro-2H-pyran-4-ylamino)pyridin-3-yl]amino}-5,7-dihydro-6H-pyrimido[5,4-d][1]benzazepine-6-thione] | < 5 nM
20 | Cc1nc(C(=O)NCCN2CCOCC2)ccc1Nc1ncc2c(n1)-c1ccc(C(F)(F)F)cc1NC(=S)C2 [Compound I-21] | < 5 nM
21 | Cc1nc(NC2CCN(C)CC2)ccc1Nc1ncc2c(n1)-c1ccc(Cl)cc1NC(=S)C2 [Compound I-22, 9-chloro-2-({2-methyl-6-[(1-methylpiperidin-4-yl)amino]pyridin-3-yl}amino)-5,7-dihydro-6H-pyrimido[5,4-d][1]benzazepine-6-thione] | < 5 nM
22 | Cc1nc(NCCCN(C)C)ccc1Nc1ncc2c(n1)-c1ccc(C(F)(F)F)cc1NC(=S)C2 [Compound I-23, 2-[(6-{[3-(dimethylamino)propyl]amino}-2-methylpyridin-3-yl)amino]-9-(trifluoromethyl)-5,7-dihydro-6H-pyrimido[5,4-d][1]benzazepine-6-thione] | < 5 nM
23 | COc1ncc(CCCN(C)C)cc1Nc1ncc2c(n1)-c1ccc(Cl)cc1NC(=S)C2 [Compound I-24, 9-chloro-2-({5-[3-(dimethylamino)propyl]-2-methoxypyridin-3-yl}amino)-5,7-dihydro-6H-pyrimido[5,4-d][1]benzazepine-6-thione] | < 5 nM
24 | CN(C)CCc1cncc(Nc2ncc3c(n2)-c2ccc(C(F)(F)F)cc2NC(=S)C3)c1 [Compound I-25, 2-({5-[2-(dimethylamino)ethyl]pyridin-3-yl}amino)-9-(trifluoromethyl)-5,7-dihydro-6H-pyrimido[5,4-d][1]benzazepine-6-thione] | < 5 nM
25 | Cc1ncc(CCN2CCN(C)CC2)cc1Nc1ncc2c(n1)-c1ccc(C(F)(F)F)cc1NC(=S)C2 [Compound I-26, 2-({2-methyl-5-[2-(4-methylpiperazin-1-yl)ethyl]pyridin-3-yl}amino)-9-(trifluoromethyl)-5,7-dihydro-6H-pyrimido[5,4-d][1]benzazepine-6-thione] | < 5 nM
26 | CN(C)CCCc1cnc(F)c(Nc2ncc3c(n2)-c2ccc(Cl)cc2NC(=S)C3)c1 [Compound I-27, 9-chloro-2-({5-[3-(dimethylamino)propyl]-2-fluoropyridin-3-yl}amino)-5,7-dihydro-6H-pyrimido[5,4-d][1]benzazepine-6-thione] | < 5 nM
27 | CN1CCN(c2ccc(Nc3ncc4c(n3)-c3ccc(Cl)cc3NC(=S)C4)cn2)CC1 [Compound I-28, 9-chloro-2-{[6-(4-methylpiperazin-1-yl)pyridin-3-yl]amino}-5,7-dihydro-6H-pyrimido[5,4-d][1]benzazepine-6-thione] | < 5 nM
28 | Cc1nc(N2CCC(N(C)C)CC2)ccc1Nc1ncc2c(n1)-c1ccc(C(F)(F)F)cc1NC(=S)C2 [Compound I-29, 2-({6-[4-(dimethylamino)piperidin-1-yl]-2-methylpyridin-3-yl}amino)-9-(trifluoromethyl)-5,7-dihydro-6H-pyrimido[5,4-d][1]benzazepine-6-thione] | < 5 nM
29 | Cc1ncc(CCNC2CCCC2)cc1Nc1ncc2c(n1)-c1ccc(Cl)cc1NC(=S)C2 [Compound I-30, 9-chloro-2-({5-[2-(cyclopentylamino)ethyl]-2-methylpyridin-3-yl}amino)-5,7-dihydro-6H-pyrimido[5,4-d][1]benzazepine-6-thione] | > 25 nM
30 | Cc1ncc(CCN2C[C@@H](C)O[C@@H](C)C2)cc1Nc1ncc2c(n1)-c1ccc(Cl)cc1NC(=S)C2 [Compound I-31, 9-chloro-2-[(5-{2-[(2R,6S)-2,6-dimethylmorpholin-4-yl]ethyl}-2-methylpyridin-3-yl)amino]-5,7-dihydro-6H-pyrimido[5,4-d][1]benzazepine-6-thione] | < 5 nM
